Test results as given in paper PMC10361461, “Evaluating the solubility of compounds intended for intramammary infusion based upon tests conducted across a range of milk matrices” (PLOS ONE, 2023).
≈ marks a conversion by molar mass, not a printed value. Structures can show the parent of a compound that is named as a salt. Where two headings read alike, the source gives them in different places. Marks after values point to notes of the source that are not given here. One block for each compound: values may come before it.

What was measured:
[1] = Solubility assessment in milk vehicles and 10 mM sodium phosphate buffer pH 6.8, HPLC analysis; assay type: physicochemical; settings: for USP solubility classification: across tested media; for solubility at 60 min: thermodynamic from solid
Method: Solubility assessment was performed in all milk vehicles listed above. A 10 mM sodium phosphate buffer pH 6.8 was also included as a control. For each solubility sample, an excess amount of drug powder was weighed in a 20-mL glass vial. A suitable volume of the vehicle, pre-equilibrated to the desired temperature, was added to the drug powder. The samples were stirred for 60 minutes at 38°C or 20°–25°C [room temperature (RT)] prior to processing. The temperature of 38°C reflects the rectal temperature the healthy adult cow, 38°C [17].
Upon completion of this portion of the test procedure, approximately 2 mL of the solubility sample was passed through the Phenex-GF 1.2 μm filter to remove the excess drug solid. The filtration and solvent extraction steps were carried out immediately for each sample after the solubility testing was completed. All supplies used in the filtration were pre-equilibrated at the corresponding temperature. […] An aliquot of 0.5 mL filtrate was accurately transferred to a microcentrifuge tube followed by the addition of 1 mL extraction solvent. The extraction solvent was 0.1% TFA in acetonitrile (mobile phase channel B). The mixture was then centrifuged at 10,000 rpm, and about 1 mL of the supernatant was passed through a Phenex-RC 0.45 μm filter. The filtrate was collected in an HPLC autosampler vial and analyzed by the HPLC method described below.
A gradient HPLC method, described in Table 5, was used to analyze the concentration of all drug solubility samples after treatment.

[2] = cited from earlier work; for Solubility in Water at 25°C: descriptions and ranges based on USP definitions
[3] = Solubility in milk related vehicles, previous study (Li et al., 2022); assay type: physicochemical; settings: RT; data ref 6
[4] = cited from earlier work
plasma protein = settings: cited from earlier work
[5] = parameters: method as in earlier work; settings: cited from earlier work
[6] = cited from earlier work; remark: listed apart in the source
[7] = room temperature, expressed as free form of cephapirin

Solubility, Raw Milk ([1]; 38°C, expressed as free form of cephapirin): 0.706 ± 0.021 mg/mL | Solubility, Reconstituted Whole Milk Powder (Nestle), Lot 1 ([1]; 38°C, milk powder Lot 1, expressed as free form of cephapirin): 0.740 ± 0.005 mg/mL | Solubility, Reconstituted Whole Milk Powder (Nestle), Lot 2 ([1]; 38°C, milk powder Lot 2, expressed as free form of cephapirin): 0.762 ± 0.028 mg/mL | USP solubility classification [1]: very slightly soluble | Solubility, Raw Milk [1, 7]: 0.476 ± 0.003 mg/mL | Solubility, Reconstituted Whole Milk Powder (Nestle) [1, 7]: 0.508 ± 0.006 mg/mL | Solubility, Skim Milk [1, 7]: 0.460 ± 0.007 mg/mL | Solubility, Whole Milk [1, 7]: 0.509 ± 0.010 mg/mL | Solubility, pH 6.8 buffer (control) [1, 7]: 0.352 ± 0.003 mg/mL
Compound: CC(=O)OCC1=C(C(=O)O)N2C(=O)[C@@H](NC(=O)CSc3ccncc3)[C@H]2SC1.CC(=O)OCC1=C(C(=O)O)N2C(=O)[C@@H](NC(=O)CSc3ccncc3)[C@H]2SC1.c1ccc(CNCCNCc2ccccc2)cc1 [Cephapirin Benzathine, Cephapirin benzathine]
Solubility in 0.1 N HCl (descriptive) ([2]; 0.1 N HCl): soluble | Solubility in alcohol (descriptive) ([2]; alcohol): freely soluble | Solubility in ether (descriptive) ([2]; ether): practically insoluble | Solubility in toluene (descriptive) ([2]; toluene): practically insoluble | Solubility in water (descriptive) [2]: practically insoluble

solubility at 60 min ([1]; 10 mM sodium phosphate buffer, pH 6.8, aqueous buffer, room temperature, expressed as free form of cephapirin, read-out: Solubility, pH 6.8 buffer (control)): > 200 mg/mL | USP solubility classification [1]: freely soluble | solubility at 60 min ([1]; bovine, 38 °C, plasma or biological fluid, reconstituted and raw milk, read-out: Solubility in reconstituted and raw milk): > 500 mg/mL | solubility at 60 min ([1]; bovine, milk vehicles (all tested media except the pH 6.8 buffer), plasma or biological fluid, all tested media with the exception of the pH 6.8 aqueous buffer, read-out: Solubility in the tested media): > 350 mg/mL | solubility at 60 min ([1]; bovine, raw milk, plasma or biological fluid, 38°C, expressed as free form of cephapirin, read-out: Solubility, Raw Milk): > 500 mg/mL | solubility at 60 min ([1]; bovine, raw milk, plasma or biological fluid, room temperature, expressed as free form of cephapirin, read-out: Solubility, Raw Milk): > 350 mg/mL | solubility at 60 min ([1]; bovine, reconstituted whole milk powder (Nestle), plasma or biological fluid, room temperature, expressed as free form of cephapirin, read-out: Solubility, Reconstituted Whole Milk Powder (Nestle)): > 350 mg/mL | solubility at 60 min ([1]; bovine, skim milk, plasma or biological fluid, room temperature, expressed as free form of cephapirin, read-out: Solubility, Skim Milk): > 350 mg/mL | solubility at 60 min ([1]; bovine, whole milk, plasma or biological fluid, room temperature, expressed as free form of cephapirin, read-out: Solubility, Whole Milk): > 350 mg/mL | solubility at 60 min ([1]; reconstituted whole milk powder (Nestle), plasma or biological fluid, 38°C, expressed as free form of cephapirin, read-out: Solubility, Reconstituted Whole Milk Powder (Nestle)): > 500 mg/mL
Compound: CC(=O)OCC1=C(C(=O)O)N2C(=O)[C@@H](NC(=O)CSc3ccncc3)[C@H]2SC1 [Cephapirin Sodium, Cephapirin sodium]
Solubility in most organic solvents (descriptive) ([2]; most organic solvents): insoluble | Solubility in water (descriptive) [2]: very soluble

Further lines, the compound ahead of its results:

Compound: CC(=O)Nc1ccc(O)cc1 [Acetaminophen]
Ratio of solubility, Reconstituted whole milk versus raw milk [3]: 1.01 | Ratio of solubility, Skim milk versus raw milk [3]: 1.08 | Ratio of solubility, Whole milk versus raw milk [3]: 1.05 | Ratio of solubility, pH 6.8 buffer versus raw milk [3]: 1.05 | Solubility in Water at 25°C [2]: Sparingly Soluble (10–33 mg/mL) | Ionization state at pH 7 [4]: Neutral | Plasma Protein Binding (plasma protein): 20–25%

Compound: C[C@@H]1C[C@H]2[C@@H]3CCC4=CC(=O)C=C[C@]4(C)[C@@]3(F)[C@@H](O)C[C@]2(C)[C@@]1(O)C(=O)CO [Dexamethasone]
Ratio of solubility, Reconstituted whole milk versus raw milk [3]: 1.16 | Ratio of solubility, Skim milk versus raw milk [3]: 1.04 | Ratio of solubility, Whole milk versus raw milk [3]: 1.08 | Ratio of solubility, pH 6.8 buffer versus raw milk [3]: 0.64 | Solubility in Water at 25°C [2]: Practically Insoluble (≤ 0.1 mg/mL) | pKa ([4]; in words): Non-ionizable | Ionization state at pH 7 [4]: Neutral | Plasma Protein Binding (plasma protein): ~77%

Compound: CN1C(C(=O)Nc2ccccn2)=C(O)c2ccccc2S1(=O)=O [Piroxicam]
Solubility in aqueous buffer ([5]; aqueous buffer): 0.287 ± 0.019 mg/mL (≈ 866 µM) | Solubility in skim milk ([5]; skim milk): 0.262 ± 0.005 mg/mL (≈ 791 µM) | Solubility in Water at 25°C [2]: Practically Insoluble (≤ 0.1 mg/mL)^c | Log P ([6]; pH 6.5): -1.33 | Log P ([6]; pH 6.6): 0.72 | Plasma Protein Binding (plasma protein): ~ 99%

Compound: C[C@]12C=CC(=O)C=C1CC[C@@H]1[C@@H]2[C@@H](O)C[C@@]2(C)[C@H]1CC[C@]2(O)C(=O)CO [Prednisolone]
pKa ([4]; in words): Non-ionizable | Ionization state at pH 7 [4]: Neutral | Log P [6]: ~ 1.6 | Plasma Protein Binding (plasma protein): 60–90%

Compound: CN(C)CCC=C1c2ccccc2CCc2ccccc21 [Amitriptyline HCl]
Solubility in Water at 25°C [2]: Freely Soluble (100–1000 mg/mL) | pKa ([4]; base): 9.45 (base) | Ionization state at pH 7 [4]: Positively charged | Log P ([6]; free base): 5.0 | Log P ([6]; pH 7.4): 3.0 | Plasma Protein Binding (plasma protein): ~ 95%
